Legend:
[1] = test system: SK-OV-3; assay: In vitro cell experiment (MTT), SK-OV-3; assay type: cell-based; settings: 72 h, human ovarian carcinoma cells (EGFR2 overexpressing)
Method: (§1) Cells in logarithmic growth phase were seeded at a certain density in a 96-well plate (200 μL/well). The cells were allowed to grow for 24 h and subsequently treated with different concentrations of drugs (including a blank group and a control group) and incubated for 72 h at 37° C. Each concentration in a given experiment was tested in triplicate. After 72 h of exposure, 20 μL of the MTT labeling reagent was added to the medium (the final concentration of MTT was 0.5 mg/mL), and the cells were incubated for additional 4 h at 37° C. Following this process, 180 μL of the medium was removed and 130 μL of DMSO was added to each well, or the medium was completely removed and 150 μL of DMSO was added to each well. Then the plate was shaken and mixed in a micro-oscillator. Finally the optical density (OD) of each sample was measured in a micro-plate reader at 550 nm. Cell inhibition rate was calculated according to the following formula: […]
(§2) According to cell inhibition rates, IC50 was calculated by LOGIT method. The experiments were repeated twice and the data was expressed as means±SD.

[2] = test system: HCC827; assay: In vitro cell experiment (MTT), HCC827; assay type: cell-based; settings: 72 h, human non-small cell lung carcinoma (EGFR1 19 exon mutation)
Method: as §1, §2

[3] = test system: A549; assay: In vitro cell experiment (MTT), A549; assay type: cell-based; settings: 72 h, human non-small-cell lung carcinoma cells (EGFR1 wildtype)
Method: as §1, §2

[4] = Mouse maximum tolerated dose (MTD) experiment; settings: in vivo, mice, oral, administered 7 days then observed 7 days
Method: In the mouse MTD experiment, the mice were administrated with the present compounds.
Healthy mice, having a small difference in body's weights, were chosen. The chosen mice were placed in different layers of cages according to their body's weights. In each layer, the mice were randomly divided into groups. In each group, there were three mice.
The administration dosages were 1000, 500, 250, 125, 62.5 and 31.25 mg/kg respectively and each two dosages differed by a factor of 2. For each of administration dosages, three mice were allotted. The mice were administrated with the present compounds for 7 days and then observed for the next 7 days without the present compounds.
The present compounds were orally administrated with the mice according to the administration dosage and the body weight.

[5] = test system: H292; assay: In vitro cell experiment (MTT), H292; assay type: cell-based; settings: NCI-H292, 72 h, human lung carcinoma cells (EGFR1 overexpressing)
Method: as §1, §2

[6] = test system: HCT116; assay: In vitro cell experiment (MTT), HCT116; assay type: cell-based; settings: HCT-116, 72 h, human colon carcinoma cells
Method: as §1, §2

In the case of `COc1cc2c(Nc3ccc(Br)cc3F)ncnc2cc1OCCn1c(C)nc2ccccc21` [Compound 8, 4-(4-bromo-2-fluoroanilino)-6-methoxy-7-(2-(2-methyl-1H-benzo[d]imidazole-1-yl)ethoxy)quinazoline], the IC50 [1] is reported as 2770 nM.

In the case of `CNC(=O)CCCCCOc1cc2ncnc(Nc3ccc(F)c(Cl)c3)c2cc1OC` [Compound 42, N-methyl-6-(4-(3-chloro-4-fluoroanilino)-6-methoxyquinazolin-7-yloxy)hexanamide], the IC50 [2] is reported as 2.8 nM.

`COc1cc2c(Nc3ccc(F)c(Cl)c3)ncnc2cc1OCc1csc(C)n1` [Compound 27′, 4-(3-chloro-4-fluoroanilino)-6-methoxy-7-((2-methylthiazol-4-yl)methoxy)quinazoline] gave an IC50 [2] of 6.2 nM.

Molecule `COc1cc2c(Nc3ccc(F)c(Cl)c3)ncnc2cc1OCCn1ccnc1` [Compound 36, 4-(3-chloro-4-fluoroanilino)-6-methoxy-7-(2-(1H-imidazol-1-yl)ethoxy)quinazoline] has an IC50 [3] of 3640 nM and an IC50 [1] of 2920 nM.

In the case of `COc1cc2c(Nc3ccc(F)c(Cl)c3)ncnc2cc1OCCCCCC(=O)N(C)C` [Compound 43, N, N-dimethyl-6-(4-(3-chloro-4-fluoroanilino)-6-methoxyquinazolin-7-yloxy)hexanamide], the IC50 [2] is reported as 4.1 nM.

`COc1cc2c(Nc3ccc(Br)cc3F)ncnc2cc1OCc1csc(C)n1` [Compound 17, 4-(4-bromo-2-fluoroanilino)-6-methoxy-7-((2-methylthiazole-4-yl)methoxy)quinazoline] showed an MTD [4] of 500 to 1000 mg/kg and an IC50 [2] of 6.7 nM.

In the case of `COc1cc2c(Nc3ccc(F)c(Cl)c3)ncnc2cc1OCCCCC(N)=O` [Compound 41, 5-(4-(3-chloro-4-fluoroanilino)-6-methoxyquinazolin-7-yl-oxy)pentanamide], the IC50 [3] is reported as 2710 nM, the IC50 [1] is reported as 2680 nM and the IC50 [2] is reported as 0.9 nM. It also gave an IC50 [5] of 89.9 nM.

`COc1cc2c(Nc3ccc(Br)cc3F)ncnc2cc1OCc1ccc(N2CCOCC2)cc1` [Compound 12, 4-(4-bromo-2-fluoroanilino)-6-methoxy-7-(4-morpholinobenz-yloxy)quinazoline] showed an IC50 [6] of 1090 nM.

`COc1cc2c(Nc3ccc(Br)cc3F)ncnc2cc1Oc1ccc(C(=O)N2CCOCC2)cn1` [Compound 18, (6-(4-(4-bromo-2-fluoroanilino)-6-methoxyquinazolin-7-yl-oxy)pyridine-3-yl)(morpholino)methanone] gave an IC50 [6] of 962 nM.

`CNC(=O)CCCCCOc1cc2ncnc(Nc3ccc(Br)cc3F)c2cc1OC` [Compound 31, N-methyl-6-(4-(4-bromo-2-fluoroanilino)-6-methoxyquinazolin-7-yloxy)hexanamide] showed an IC50 [2] of 10.7 nM.

`COc1cc2c(Nc3ccc(Br)cc3F)ncnc2cc1OCCc1csc(C)n1` [Compound 26, 4-(4-bromo-2-fluoroanilino)-6-methoxy-7-(2-(2-methylthiazol-4-yl)ethoxy)quinazoline] gave an IC50 [2] of 1.4 nM.

Work on `COc1cc2c(Nc3ccc(Br)cc3F)ncnc2cc1OCc1cccc(C#N)c1` [Compound 3, 4-(4-bromo-2-fluoroanilino)-6-methoxy-7-(3-cyanobenzyloxy) quinazoline] yielded an MTD [4] of 500 to 1000 mg/kg, an IC50 [1] of 2020 nM and an IC50 [6] of 892 nM.

Work on `COc1cc2c(Nc3ccc(Br)cc3F)ncnc2cc1OCc1cccc(C)n1` [Compound 7, 4-(4-bromo-2-fluoroanilino)-6-methoxy-7-((6-methylpyridine-2-yl)methoxy)quinazoline] yielded an MTD [4] of 62.5 to 125 mg/kg and an IC50 [2] of 8.6 nM.

With `COc1cc2c(Nc3ccc(Br)cc3F)ncnc2cc1OCc1ccc(C(F)(F)F)cc1` [Compound 5, 4-(4-bromo-2-fluoroanilino)-6-methoxy-7-(4-trifluoromethyl-benzyloxy)quinazoline] the IC50 [6] was 1040 nM.

In the case of `COc1cc2c(Nc3ccc(F)c(Cl)c3)ncnc2cc1OCCCn1ccnc1` [Compound 25, 4-(3-chloro-4-fluoroanilino)-6-methoxy-7-(3-(1H-imidazole-1-yl)propoxy)quinazoline], the IC50 [2] is reported as 2.6 nM.
